Laboratory results reported in patent US20230203004A1, “RSV INHIBITING 3-SUBSTITUTED QUINOLINE AND CINNOLINE DERIVATIVES” (Janssen Sciences Ireland Unlimited Company, priority 2020, published 2023).

Legend:
rgRSV224 virus = experiment: Antiviral activity: rgRSV224 (GFP) replication in HeLa cells; type: cell-based, respiratory syncytial virus (RSV); settings: human respiratory syncytial virus, HeLa, 72 h, read-out: RSV HELA EC50, HeLa cells, rgRSV224 MOI = 1, GFP expression three days post-virus exposure; averaged data of several repeat experiments
Summary of the method: (§1)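 HeLa cells infected with GFP-expressing rgRSV224 at MOI 1 in RPMI/10% FBS, 0.05% DMSO, with 9 serial 4-fold compound dilutions; 3 days at 37 °C, GFP read by laser microscopy for EC50. Cytotoxicity: uninfected HeLa cells, 3 days, cellular ATP (ATPlite) for CC50.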

[1] = Cytotoxicity in HeLa cells (ATP content, ATPlite kit); type: cell-based; settings: human, TOX HELA CC50
Summary of the method: as §1

| SMILES | EC50 (rgRSV224 virus) [µM] | CC50 at 3 days [1] [µM] |
| --- | --- | --- |
| COc1cc(C(=O)NC[C@](O)(c2cc(C(C)(C)O)c(F)c(-c3ccc(F)cc3)n2)C(F)F)cc2cc(C(F)F)nnc12 [compound 292, (-)-N-(3,3-difluoro-2-(5-fluoro-6-(4-fluorophenyl)-4-(2-hydroxypropan-2-yl)pyridin-2-yl)-2-hydroxypropyl)-3-(difluoromethyl)-8-methoxycinnoline-6-carboxamide] | 0.012 | 29 |
| COc1cc(C(=O)NC[C@](O)(c2cc(C(C)(C)O)c(F)c(-c3ccc(F)cc3)n2)C(F)F)cc2cc(C3CC3)nnc12 [compound 293, (-)Cyclopropyl-N-(3,3-Difluoro-2-(5-Fluoro-6-(4-Fluorophenyl)-4-(2-Hydroxypropan-2-yl)Pyridin-2-yl)-2-Hydroxypropyl)-8-Methoxycinnoline-6-Carboxamide] | 0.011 | 15 |
| COc1cc(C(=O)NC[C@](O)(c2cc(C(C)(C)O)c(F)c(-c3ccc(F)cc3)n2)C2(F)CC2)cc2cc(C)nnc12 [compound 296] | 0.002 | 56 |
| COc1cc(C(=O)NC[C@@](O)(c2cc(C(C)(C)O)c(F)c(-c3ccc(F)cc3)n2)C2(F)CC2)cc2cc(C)nnc12 [compound 297] | 0.058 | 45 |
| COc1cc(C(=O)NC[C@](O)(c2cc(C(C)(C)O)c(F)c(-c3ccc(F)cc3)n2)C2(C)CC2)cc2cc(C)nnc12 [compound 298] | 0.0026 | 52 |
| COc1cc(C(=O)NC[C@@](O)(c2cc(C(C)(C)O)c(F)c(-c3ccc(F)cc3)n2)C2(C)CC2)cc2cc(C)nnc12 [compound 299] | 0.093 | 12 |
| COc1cc(C(=O)NC[C@](O)(c2cc(C(C)(C)O)cc(-c3ccc(F)cc3)n2)C2CC2)cc2cc(C)nnc12 [compound 304] | 0.0021 | 23 |
| COc1cc(C(=O)NC[C@@](O)(c2cc(C(C)(C)O)cc(-c3ccc(F)cc3)n2)C2CC2)cc2cc(C)nnc12 [compound 305] | 0.642 | 41 |
| COc1cc(C(=O)NC[C@](O)(c2cc(C(C)(C)O)cc(-c3ccc(F)cc3)n2)C(C)(C)F)cc2cc(C)nnc12 [compound 306] | 0.001 | 50 |
| COc1cc(C(=O)NC[C@@](O)(c2cc(C(C)(C)O)cc(-c3ccc(F)cc3)n2)C(C)(C)F)cc2cc(C)nnc12 [compound 307] | 0.04 | 43 |
| Cc1cc2cc(C(=O)NC[C@](O)(c3cc(C(C)(C)O)c(F)c(-c4ccc(F)cc4)n3)C(F)F)cc(OC3CC3)c2nn1 [compound 308, (-)Cyclopropoxy-N-(3,3-Difluoro-2-(5-Fluoro-6-(4-Fluorophenyl)-4-(2-Hydroxypropan-2-yl)Pyridin-2-yl)-2-Hydroxypropyl)-3-Methylcinnoline-6-Carboxamide] | 0.0023 | 38 |
| COc1cc(C(=O)NC[C@](O)(c2cc(C(C)(C)O)cc(-c3ccc(F)cc3)n2)C(C)(F)F)cc2cc(C)nnc12 [compound 309, (-)-N-(3,3-difluoro-2-(6-(4-fluorophenyl)-4-(2-hydroxypropan-2-yl)pyridin-2-yl)-2-hydroxybutyl)-8-methoxy-3-methylcinnoline-6-carboxamide] | 0.011 | 34 |
| COc1cc(C(=O)NC[C@@](O)(c2cc(C(C)(C)O)cc(-c3ccc(F)cc3)n2)C(C)(F)F)cc2cc(C)nnc12 [compound 310, (+)-N-(3,3-difluoro-2-(6-(4-fluorophenyl)-4-(2-hydroxypropan-2-yl)pyridin-2-yl)-2-hydroxybutyl)-8-methoxy-3-methylcinnoline-6-carboxamide] | > 1.25 | 55 |
| [2H]C([2H])([2H])c1cc2cc(C(=O)NC[C@](O)(c3cc(C(C)(C)O)c(F)c(-c4ccc(F)cc4)n3)C(F)(F)F)cc(OC)c2nn1 [compound 311, (-)Methoxy-3-(Methyl-d3)-N-(3,3,3-Trifluoro-2-(5-Fluoro-6-(4-Fluorophenyl)-4-(2-Hydroxypropan-2-yl)Pyridin-2-yl)-2-Hydroxypropyl)Cinnoline-6-Carboxamide] | 0.0013 | 42 |
| Cc1cc2cc(C(=O)NC[C@](O)(c3cc(C(C)(C)O)c(F)c(-c4ccc(F)cc4)n3)C(F)(F)F)cc(OC(F)F)c2nn1 [compound 312, (-)(Difluoromethoxy)-3-Methyl-N-(3.3.3-Trifluoro-2-(5-Fluoro-6-(4-Fluorophenyl)-4-(2-Hydroxypropan-2-yl)Pyridin-2-yl)-2-Hydroxypropyl)Cinnoline-6-Carboxamide] | 0.0028 | 13 |
| COc1cc(C(=O)NC[C@](O)(c2cc(C(C)(C)O)c(F)c(-c3ccc(F)cc3)n2)C(C)(F)F)cc2cc(C)nnc12 [compound 313, (-)-N-(3,3-difluoro-2-(5-fluoro-6-(4-fluorophenyl)-4-(2-hydroxypropan-2-yl)pyridin-2-yl)-2-hydroxybutyl)-8-methoxy-3-methylcinnoline-6-carboxamide] | 0.001 | 42 |
| COc1cc(C(=O)NC[C@@](O)(c2cc(C(C)(C)O)c(F)c(-c3ccc(F)cc3)n2)C(C)(F)F)cc2cc(C)nnc12 [compound 314, (+)-N-(3,3-difluoro-2-(5-fluoro-6-(4-fluorophenyl)-4-(2-hydroxypropan-2-yl)pyridin-2-yl)-2-hydroxybutyl)-8-methoxy-3-methylcinnoline-6-carboxamide] | 0.168 | 35 |
| [2H]C([2H])(NC(=O)c1cc(OC)c2nnc(C)cc2c1)[C@@](O)(c1cc(C(C)(C)O)c(F)c(-c2ccc(F)cc2)n1)C1CC1 [compound 315] | 0.047 | 27 |
| [2H]C([2H])(NC(=O)c1cc(OC)c2nnc(C)cc2c1)[C@](O)(c1cc(C(C)(C)O)c(F)c(-c2ccc(F)cc2)n1)C1CC1 [compound 316] | 0.00034 | 33 |
| Cc1cc2cc(C(=O)NC[C@](O)(c3cc(C(C)(C)O)c(F)c(-c4ccc(F)cc4)n3)C(F)(F)F)cc(OC3CC3)c2nn1 [compound 318, (-)Cyclopropoxy-3-Methyl-N-(3.3.3-Trifluoro-2-(5-Fluoro-6-(4-Fluorophenyl)-4-(2-Hydroxypropan-2-yl)Pyridin-2-yl)-2-Hydroxypropyl)Cinnoline-6-Carboxamide] | 0.0014 | 22 |
| COc1cc(C(=O)NC[C@](O)(c2cc(C(C)(C)O)c(F)c(-c3ccc(F)cc3)n2)C(F)(F)F)cc2cc(C3CC3)cnc12 [compound 321, (-)Cyclopropyl-8-Methoxy-N-(3,3,3-Trifluoro-2-(5-Fluoro-6-(4-Fluorophenyl)-4-(2-Hydroxypropan-2-yl)Pyridin-2-yl)-2-Hydroxypropyl)Quinoline-6-Carboxamide] | 0.054 | 13 |
| COc1cc(C(=O)NC[C@](O)(c2cc(C(C)(C)O)c(F)c(-c3ccc(F)cc3)n2)C(F)(F)F)cc2cc(C)cnc12 [compound 322, (-)Methoxy-3-Methyl-N-(3,3,3-Trifluoro-2-(5-Fluoro-6-(4-Fluorophenyl)-4-(2-Hydroxypropan-2-yl)Pyridm-2-yl)-2-Hydroxypropyl)Qumolme-6-Carboxamide] | 0.0045 | 15 |
| COc1cc(C(=O)NC[C@](O)(c2cc(C(C)(C)O)c(F)c(-c3ccc(F)cc3)n2)C(F)(F)F)cc2cc(CF)cnc12 [compound 324, (-)(Fluoromethyl)-8-Methoxy-N-(3,3,3-Trifluoro-2-(5-Fluoro-6-(4-Fluorophenyl)-4-(2-Hydroxypropan-2-yl)Pyridin-2-yl)-2-Hydroxypropyl)Quinoline-6-Carboxamide] | 0.012 | 4 |
| COc1cc(C(=O)NC[C@](O)(c2cc(C(C)(C)O)c(F)c(-c3ccc(F)cc3)n2)C(F)(F)F)cc2cc(C(F)F)cnc12 [compound 325, (-)(Difluoromethyl)-8-Methoxy-N-(3,3,3-Trifluoro-2-(5-Fluoro-6-(4-Fluorophenyl)-4-(2-Hydroxypropan-2-yl)Pyridin-2-yl)-2-Hydroxypropyl)Quinoline-6-Carboxamide] | 0.0036 | 13 |
| COc1cc(C(=O)NC[C@](O)(c2cc(C(C)(C)O)c(F)c(-c3ccc(F)cc3)n2)C(F)(F)F)cc2cc(C(F)(F)F)cnc12 [compound 326, (-)(Trifluoromethyl)-8-Methoxy-N-(3,3,3-Trifluoro-2-(5-Fluoro-6-(4-Fluorophenyl)-4-(2-Hydroxypropan-2-yl)Pyridin-2-yl)-2-Hydroxypropyl)Quinoline-6-Carboxamide] | 0.026 | 13 |
| COc1cc(C(=O)NC[C@](O)(c2cc(C(C)(C)O)c(Cl)c(-c3ccc(F)cc3)n2)C(F)(F)F)cc2cc(C(F)F)cnc12 [compound 327, (-)(Difluoromethyl)-8-Methoxy-N-(3,3,3-Trifluoro-2-(5-Chloro-6-(4-Fluorophenyl)-4-(2-Hydroxypropan-2-yl)Pyridin-2-yl)-2-Hydroxypropyl)Quinoline-6-Carboxamide] | 0.0095 | 15 |
| COc1cc(C(=O)NC[C@](O)(c2cc(C(C)(C)O)c(Cl)c(-c3ccc(F)cc3)n2)C(F)(F)F)cc2cc(C(F)(F)F)cnc12 [compound 328, (-)(Trifluoromethyl)-8-Methoxy-N-(3,3,3-Trifluoro-2-(5-Chloro-6-(4-Fluorophenyl)-4-(2-Hydroxypropan-2-yl)Pyridin-2-yl)-2-Hydroxypropyl)Quinoline-6-Carboxamide] | 0.04 | 14 |
| COc1cc(C(=O)NC[C@](O)(c2cc(C(C)(C)O)c(F)c(-c3ccc(F)c(F)c3)n2)C(F)(F)F)cc2cc(C(F)F)cnc12 [compound 330, (-)(Difluoromethyl)-8-Methoxy-N-(3,3,3-Trifluoro-2-(5-Fluoro-6-(3,4-Difluorophenyl)-4-(2-Hydroxypropan-2-yl)Pyridin-2-yl)-2-Hydroxypropyl)Quinoline-6-Carboxamide] | 0.01 | 13 |
